{"source": "patent US9856732B2", "about": "“Tracers” (RESTRACK AS, priority 2012, dated 2018)", "key": {"[1]": {"assay": "Oil/water partition coefficient from flooding experiment on silica-packed column at residual oil saturation", "type": "physicochemical", "conditions": "80° C., oil 2 and water 2", "protocol": "Structural formulas of examples of compounds from four groups of fluorinated benzyl alcohols tested are shown herein, including in FIG. 1. The compounds could be analyzed using gas chromatography with mass spectrometric detection (GC-MS) in produced water after clean-up and pre-concentration of the water samples. Detection limits of 50 ng/l (ppt) could be obtained depending on the level of interferences from the sample matrix. Several compounds from the four groups were selected and tested for thermal stability, flooding properties, and adsorption to rock materials. In addition, two pilot field tests were initiated. Some results from the laboratory tests are shown in Table 1 and in FIG. 2 to FIG. 10. Partition coefficients were measured at 80° C., oil 2 and water 2.\nA still further feature of the benzyl alcohol compounds used in the various aspects of the present invention is their highly suitable partition coefficients. For example, compounds of formula i) or preferred compounds as described herein may have partition coefficients between 1.0 and 8.0. The partition coefficients should not be too high because the partitioning tracers then will be retained too much compared to the passive water tracer. Preferable values for the partition coefficients will be between 1.2 and 7, preferably between 1.3 and 5. In all cases referred to herein partition coefficients are measured at 80° C., oil 2 and water 2, unless otherwise stated.\nTo test the dynamic properties of the tracer candidate an experimental setup containing a residual oil saturated column was used. […] The column was packed with 70 μm silica beads. Dead crude oil was pumped through the column after which artificial formation water was pumped through the system until residual oil saturation was reached. The tracer candidate was then co-injected with tritiated water (HTO) as a pulse into the water flow. The experiments were conducted with different oil types, different water compositions and at several temperatures."}, "[2]": {"assay": "Biodegradability in seawater (OECD 306)", "protocol": "Tracers must be stable in the harsh reservoir environment, thus their results in the seawater biodegradation component of the HOCNF scheme “OECD (306 1999) guideline for testing chemicals, biodegradation in seawater” often show less than 20% biodegradation ensuring that they automatically are placed in the red category.\n(§1) The most important environmental properties were tested on several example compounds. These are biodegradability in seawater and toxicity screening for Skeletonema Costatum. The latter gives a good general indication of the total toxicity of a chemical and in combination with the biodegradability gives a strong indication of the total impact of the environment."}, "[3]": {"tested_on": "Skeletonema Costatum", "assay": "Toxicity screening for Skeletonema Costatum (ISO 10253; 2006)", "type": "cell-based", "conditions": "exposure of 72 hr", "description": "In addition to biodegradation in seawater other tests to be conducted are the toxicity test with Acardia Tonsa (ISO14669; 1999), providing a median lethal concentration (LC50) after an exposure of 48 hr, toxicity test with Skeletonema Costatum (ISO 10253; 2006), providing a median effect concentration (EC50/EL50) after an exposure of 72 hr, toxicity test with Scophthalmus Maximus (PARCOM 2006), providing the mortality of fish after 96 hr at EC50 value and bioaccumulation potential (OECD Guidelines for Testing of Chemicals, 117), providing the logarithm of n-octanol/water partition coefficient.\nas §1"}}, "data": [{"molecule": "OCc1cc(F)cc(F)c1", "note": "[3,5-DFBOH, 3,5-difluorobenzyl alcohol]", "values": [{"measurement": "partition coefficient K", "setting": "[1]", "value": 2.9}, {"measurement": "Biodegradability BOD28", "setting": "[2]", "value": 2, "unit": "%"}]}, {"molecule": "OCc1c(F)cccc1F", "note": "[2,6-DFBOH, 2,6-difluorobenzyl alcohol]", "values": [{"measurement": "partition coefficient K", "setting": "[1]", "value": 1.5}, {"measurement": "Biodegradability BOD28", "setting": "[2]", "value": 0, "unit": "%"}]}, {"molecule": "OCc1c(F)cc(F)cc1F", "note": "[2,4,6-TFBOH, 2,4,6-trifluorobenzyl alcohol]", "values": [{"measurement": "partition coefficient K", "setting": "[1]", "value": 2.4}, {"measurement": "Biodegradability BOD28", "setting": "[2]", "value": "0-3%"}]}, {"molecule": "OCc1ccccc1F", "note": "[2-FBOH, 2-fluorobenzyl alcohol]", "values": [{"measurement": "partition coefficient K", "setting": "[1]", "value": 1.5}]}, {"molecule": "OCc1c(F)ccc(F)c1F", "note": "[2,3,6-TFBOH, 2,3,6-trifluorobenzyl alcohol]", "values": [{"measurement": "partition coefficient K", "setting": "[1]", "value": 1.9}, {"measurement": "Biodegradability BOD28", "setting": "[2]", "value": 2, "unit": "%"}]}, {"molecule": "OCc1ccc(F)cc1", "note": "[4-FBOH]", "values": [{"measurement": "Toxicity EL50", "setting": "[3]", "value": "Ca 10 mg/L"}, {"measurement": "Biodegradability BOD28", "setting": "[2]", "value": 3, "unit": "%"}]}, {"molecule": "OCc1ccc(F)c(F)c1", "note": "[3,4-DFBOH, 3,4-difluorobenzyl alcohol]", "values": [{"measurement": "partition coefficient K", "setting": "[1]", "value": 2.1}]}]}
